This is an account of results in patent publication US10899754B2, “Modulators of indoleamine 2,3-dioxygenase” (GLAXOSMITHKLINE INTELLECTUAL PROPERTY DEVELOPMENT LIMITED, priority 2016, dated 2021).

SMILES strings stand for the structures. Where only a bound is given, the exact number is not on record here.

In data set [1] the test system is human epithelial HeLa cells. Briefly: HeLa cytotoxicity assay (CellTiter-Glo). It is filed as cell-based. To be noted: pCC50. The protocol: (§1) Compounds of the present invention were tested via high-throughput cellular assays utilizing detection of kynurenine via mass spectrometry and cytotoxicity as end-points. For the mass spectrometry and cytotoxicity assays, human epithelial HeLa cells (CCL-2; ATCC®, Manassas, Va.) were stimulated with human interferon-γ (IFN-γ) (Sigma-Aldrich Corporation, St. Louis, Mo.) to induce the expression of indoleamine 2, 3-dioxygenase (IDO1). Compounds with IDO1 inhibitory properties decreased the amount of kynurenine produced by the cells via the tryptophan catabolic pathway. Cellular toxicity due to the effect of compound treatment was measured using CellTiter-Glo® reagent (CTG) (Promega Corporation, Madison, Wis.), which is based on luminescent detection of ATP, an indicator of metabolically active cells.
(§2) In preparation for the assays, test compounds were serially diluted 3-fold in DMSO from a typical top concentration of 1 mM or 5 mM and plated at 0.5 μL in 384-well, polystyrene, clear bottom, tissue culture treated plates with lids (Greiner Bio-One, Kremsmünster, Austria) to generate 11-point dose response curves. Low control wells (0% kynurenine or 100% cytotoxicity) contained either 0.5 μL of DMSO in the presence of unstimulated (−IFN-γ) HeLa cells for the mass spectrometry assay or 0.5 μL of DMSO in the absence of cells for the cytotoxicity assay, and high control wells (100% kynurenine or 0% cytotoxicity) contained 0.5 μL of DMSO in the presence of stimulated (+IFN-γ) HeLa cells for both the mass spectrometry and cytotoxicity assays.
(§3) Frozen stocks of HeLa cells were washed and recovered in DMEM high glucose medium with HEPES (Thermo Fisher Scientific, Inc., Waltham, Mass.) supplemented with 10% v/v certified fetal bovine serum (FBS) (Thermo Fisher Scientific, Inc., Waltham, Mass.), and 1× penicillin-streptomycin antibiotic solution (Thermo Fisher Scientific, Inc., Waltham, Mass.). The cells were diluted to 100,000 cells/mL in the supplemented DMEM medium. 50 μL of either the cell suspension, for the mass spectrometry assay, or medium alone, for the cytotoxicity assay, were added to the low control wells, on the previously prepared 384-well compound plates, resulting in 5,000 cells/well or 0 cells/well respectively. IFN-γ was added to the remaining cell suspension at a final concentration of 10 nM, and 50 μL of the stimulated cells were added to all remaining wells on the 384-well compound plates. The plates, with lids, were then placed in a 37° C., 5% CO2 humidified incubator for 2 days.
(§4) Following incubation, the 384-well plates were removed from the incubator and allowed to equilibrate to room temperature for 30 minutes. For the cytotoxicity assay, CellTiter-Glo® was prepared according to the manufacturer's instructions, and 10 μL were added to each plate well. After a twenty minute incubation at room temperature, luminescence was read on an EnVision® Multilabel Reader (PerkinElmer Inc., Waltham, Mass.). For the mass spectrometry assay, 10 μL of supernatant from each well of the compound-treated plates were added to 40 μL of acetonitrile, containing 10 μM of an internal standard for normalization, in 384-well, polypropylene, V-bottom plates (Greiner Bio-One, Kremsmünster, Austria) to extract the organic analytes. Following centrifugation at 2000 rpm for 10 minutes, 10 μL from each well of the acetonitrile extraction plates were added to 90 μL of sterile, distilled H2O in 384-well, polypropylene, V-bottom plates for analysis of kynurenine and the internal standard on the RapidFire 300 (Agilent Technologies, Santa Clara, Calif.) and 4000 QTRAP MS (SCIEX, Framingham, Mass.). MS data were integrated using Agilent Technologies' RapidFire Integrator software, and data were normalized for analysis as a ratio of kynurenine to the internal standard. […]

Data set [2] deals with indoleamine 2, 3-dioxygenase (IDO1) (Homo sapiens, UniProt P14902). Nature of the data set: IDO1 HeLa RapidFire MS assay (kynurenine detection by mass spectrometry). Particulars: HeLa cells, pIC50, read-out: IDO1_HELA_PXC50 (converted). Further details: to induce the expression of indoleamine 2, 3-dioxygenase (IDO1). Type of data set: cell-based. The protocol: IDO1 HeLa RapidFire MS Assay
Sequence of indoleamine 2, 3-dioxygenase (IDO1) (P14902 whole entry): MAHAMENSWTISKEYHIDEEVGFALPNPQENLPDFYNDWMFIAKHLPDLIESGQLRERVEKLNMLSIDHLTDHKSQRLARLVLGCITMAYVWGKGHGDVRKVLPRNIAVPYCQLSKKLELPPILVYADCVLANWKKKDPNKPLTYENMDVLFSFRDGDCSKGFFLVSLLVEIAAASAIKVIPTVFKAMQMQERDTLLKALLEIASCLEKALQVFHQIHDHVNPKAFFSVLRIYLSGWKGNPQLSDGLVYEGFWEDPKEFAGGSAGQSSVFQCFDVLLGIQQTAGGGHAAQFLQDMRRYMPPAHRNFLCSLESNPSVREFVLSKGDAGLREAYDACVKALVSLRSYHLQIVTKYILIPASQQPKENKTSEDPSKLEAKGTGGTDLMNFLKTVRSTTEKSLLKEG
as §1, §2, §3, §4

Regarding `CC(C)CN(CC(C)C)c1ccc(C(C)CC(=O)O)cc1Nc1cnc(CO)s1` (centres unmarked) [example 207, 3-{4-[bis(2-methylpropyl)amino]-3-{[2-(hydroxymethyl)-1,3-thiazol-5-yl]amino}phenyl}butanoic acid], the HELA_IDO1_TOX_PXC50 in data set [1] was under 5. Moreover, in data set [2], the IC50 is 631 nM.
The compound `COCc1ncc(Nc2cc(C(C)CC(=O)O)ccc2N(CC(C)C)CC(C)C)s1` (centres unmarked) [example 189, 3-{4-[bis(2-methylpropyl)amino]-3-{[2-(methoxymethyl)-1,3-thiazol-5-yl]amino}phenyl}butanoic acid] registered an HELA_IDO1_TOX_PXC50 in data set [1] of under 5. Moreover, in data set [2], the IC50 was 200 nM.
`CC(C)CN(c1ccc(-c2cnn(C)c2C(=O)O)cc1Nc1nc2ccccc2o1)C1CCCCC1` [example 178, 4-{3-[(1,3-benzoxazol-2-yl)amino]-4-[cyclohexyl(2-methylpropyl)amino]phenyl}-1-methyl-1H-pyrazole-5-carboxylic acid] gave an HELA_IDO1_TOX_PXC50 in data set [1] of under 5. Further, in data set [2], the IC50 is 3160 nM.
Compound `CC(C)CN(c1ccc(-c2cn(C)nc2C(=O)O)cc1Nc1nc2ccccc2o1)C1CCCCC1` [example 176, 4-{3-[(1,3-benzoxazol-2-yl)amino]-4-[cyclohexyl(2-methylpropyl)amino]phenyl}-1-methyl-1H-pyrazole-3-carboxylic acid] showed an HELA_IDO1_TOX_PXC50 in data set [1] of under 5. In addition, the IC50 in data set [2] is 3160 nM.
For the compound `CC(C)CN(c1ccc(C(C)CC(=O)O)cc1Nc1nc2n(n1)CCCC2)C1CCCCC1` (centres unmarked) [example 150, 3-{4-[cyclohexyl(2-methylpropyl)amino]-3-({5H,6H,7H,8H-[1,2,4]triazolo[1,5-a]pyridin-2-yl}amino)phenyl}butanoic acid], the HELA_IDO1_TOX_PXC50 in data set [1] is under 5. Moreover, the IC50 in data set [2] was 3160 nM.
In the case of `CC(C)CN(CC(C)C)c1ccc(C(C)CC(=O)O)cc1NC1CCC(C(=O)O)CC1` (centres unmarked) [example 198, 4-({2-[bis(2-methylpropyl)amino]-5-(1-carboxypropan-2-yl)phenyl}amino)cyclo-hexane-1-carboxylic acid], the HELA_IDO1_TOX_PXC50 in data set [1] is listed as under 5. Besides, the IC50 in data set [2] is over 10000 nM.
As to `COCc1nnc(Nc2cc(C(C)CC(=O)O)ccc2N(CC(C)C)CC(C)C)s1` (centres unmarked) [example 188, 3-{4-[bis(2-methylpropyl)amino]-3-{[5-(methoxymethyl)-1,3,4-thiadiazol-2-yl]amino}phenyl}butanoic acid], the HELA_IDO1_TOX_PXC50 in data set [1] was under 5. Further, the IC50 in data set [2] was 126 nM.
Taken in the same sequence, the figures for `CC(=O)N1CCC(Nc2cc(C(C)CC(=O)O)ccc2N(CC(C)C)C2CCCCC2)C1` (centres unmarked) [example 135, 3-{3-[(1-acetylpyrrolidin-3-yl)amino]-4-[cyclohexyl(2-methylpropyl)amino]phenyl}butanoic acid] were under 5 and 3980 nM.
For `Cc1nnc(Nc2cc(C(C)CC(=O)O)ccc2N(CC(C)C)CC(C)C)o1.O=C(O)C(F)(F)F` (centres unmarked) [example 125, 3-{4-[bis(2-methylpropyl)amino]-3-[(5-methyl-1,3,4-oxadiazol-2-yl)amino]phenyl}butanoic acid], in that order: under 4.3 and 1260 nM.
On to `COCc1ccc(Nc2cc(C(C)CC(=O)O)ccc2N(CC(C)C)CC(C)C)nc1` (centres unmarked) [example 193, 3-{4-[bis(2-methylpropyl)amino]-3-{[5-(methoxymethyl)pyridin-2-yl]amino}phenyl}butanoic acid], for which the HELA_IDO1_TOX_PXC50 in data set [1] is under 5. The IC50 in data set [2] was 100 nM.
In the case of `COc1nsc(Nc2cc(C(C)CC(=O)O)ccc2N(CC(C)C)CC(C)C)n1` (centres unmarked) [example 132, 3-{4-[bis(2-methylpropyl)amino]-3-[(3-methoxy-1,2,4-thiadiazol-5-yl)amino]phenyl}butanoic acid], the HELA_IDO1_TOX_PXC50 in data set [1] is listed as under 4.3. Besides, in data set [2], the IC50 is 15800 nM.
In data set [1], `COCc1nnc(Nc2cc([C@H](C)CC(=O)O)ccc2N(CC(C)C)CC(C)C)[nH]1` [example 190, (3R)-3-{4-[bis(2-methylpropyl)amino]-3-{[5-(methoxymethyl)-4H-1,2,4-triazol-3-yl]amino}phenyl}butanoic acid] displayed an HELA_IDO1_TOX_PXC50 of under 5. In addition, the IC50 in data set [2] was 79.4 nM.
For the compound `CC(C)CN(CC(C)C)c1ccc(C(C)CC(=O)O)cc1Nc1nc(C2CC2)cs1` (centres unmarked) [example 141, 3-{4-[bis(2-methylpropyl)amino]-3-[(4-cyclopropyl-1,3-thiazol-2-yl)amino]phenyl}butanoic acid], the HELA_IDO1_TOX_PXC50 in data set [1] was under 5. In data set [2], the IC50 is 794 nM.
Taken in the same sequence, the figures for `CC(C)CN(c1ccc(-c2c[nH]nc2C(=O)O)cc1Nc1nc2ccccc2o1)C1CCCCC1` [example 175, 4-{3-[(1,3-benzoxazol-2-yl)amino]-4-[cyclohexyl(2-methylpropyl)amino]phenyl}-1H-pyrazole-3-carboxylic acid] were under 5 and 5010 nM.
`CC(C)CN(c1ccc(C(C)CC(=O)O)cc1NC1=N[C@H](c2ccccc2)CS1)C1CCCCC1` (stereo partly drawn) [example 148, 3-{4-[cyclohexyl(2-methypropyl)amino]-3-{[(4R)-4-phenyl-4,5-dihydro-1,3-thiazol-2-yl]amino}phenyl}butanoic acid]: in data set [1], the HELA_IDO1_TOX_PXC50 is reported as under 5. Besides, the IC50 in data set [2] is 631 nM.
For `CC(C)CN(c1ccc([C@H](C)CC(=O)O)cc1NC1CCC[C@@H](C)C1)C1CCCCC1` (stereo partly drawn) [example 184, (3R)-3-{4-[cyclohexyl(2-methylpropyl)amino]-3-{[(3R)-3-methylcyclohexyl]amino}phenyl}butanoic acid], in data set [1], the HELA_IDO1_TOX_PXC50 is recorded as under 5. Besides, in data set [2], the IC50 was 501 nM.
Compound `CC(C)CN(CC(C)C)c1ccc(C(C)CC(=O)O)cc1Nc1nnc(CC(N)=O)s1` (centres unmarked) [example 195, 3-{4-[bis(2-methylpropyl)amino]-3-{[5-(carbamoylmethyl)-1,3,4-thiadiazol-2-yl]amino}phenyl}butanoic acid] had an HELA_IDO1_TOX_PXC50 in data set [1] of under 5. In addition, in data set [2], the IC50 is 3160 nM.
As to `CC(C)CN(c1ccc(-c2ccccc2C(=O)O)cc1Nc1nc2ccccc2[nH]1)C1CCOCC1` [example 296, 3′-[(1H-1,3-benzodiazol-2-yl)amino]-4′-[(2-methylpropyl)(oxan-4-yl)amino]-[1,1′-biphenyl]-2-carboxylic acid], the HELA_IDO1_TOX_PXC50 in data set [1] was under 5. For the same compound, in data set [2], the IC50 was 631 nM.
For `CC(C)CN(CC(C)C)c1ccc(-c2ccccc2C(=O)O)cc1Nc1nc2ccccc2o1` [example 293, 3′-[(1,3-benzoxazol-2-yl)amino]-4′-[bis(2-methylpropyl)amino]-[1,1′-biphenyl]-2-carboxylic acid], in that order: under 5 and 631 nM.
For `CC(C)CN(c1ccc(C(C)CC(=O)O)cc1NC1CCN(C)CC1)C1CCCCC1` (centres unmarked) [example 140, 3-{4-[cyclohexyl(2-methylpropyl)amino]-3-[(1-methylpiperidin-4-yl)amino]phenyl}butanoic acid], the HELA_IDO1_TOX_PXC50 in data set [1] is on record as under 5. Further, in data set [2], the IC50 is 3160 nM.
The compound `CC(=O)Nc1nnc(Nc2cc(C(C)CC(=O)O)ccc2N(CC(C)C)CC(C)C)s1` (centres unmarked) [example 187, 3-{4-[bis(2-methylpropyl)amino]-3-[(5-acetamido-1,3,4-thiadiazol-2-yl)amino]phenyl}butanoic acid] showed an HELA_IDO1_TOX_PXC50 in data set [1] of under 5. The IC50 in data set [2] was over 10000 nM.
With `Cc1nnc(Nc2cc([C@H](C)CC(=O)O)ccc2N(CC(C)C)CC(C)C)s1` [example 186, (3R)-3-{4-[bis(2-methylpropyl)amino]-3-[(5-methyl-1,3,4-thiadiazol-2-yl)amino]phenyl}butanoic acid], the HELA_IDO1_TOX_PXC50 in data set [1] is under 5. For the same compound, the IC50 in data set [2] was 79.4 nM.
